How the values were obtained:
Format in all cases: cell-based, murine and human
Conditions in all cases: 20-24 hours treatment
PPAR-gamma = target: T1, PPAR-gamma (UniProt P37231); test: Transient transfection transactivation assay in CV-1 cells, GAL4-PPAR-gamma chimera, luciferase reporter
T1 sequence (P37231 1-505): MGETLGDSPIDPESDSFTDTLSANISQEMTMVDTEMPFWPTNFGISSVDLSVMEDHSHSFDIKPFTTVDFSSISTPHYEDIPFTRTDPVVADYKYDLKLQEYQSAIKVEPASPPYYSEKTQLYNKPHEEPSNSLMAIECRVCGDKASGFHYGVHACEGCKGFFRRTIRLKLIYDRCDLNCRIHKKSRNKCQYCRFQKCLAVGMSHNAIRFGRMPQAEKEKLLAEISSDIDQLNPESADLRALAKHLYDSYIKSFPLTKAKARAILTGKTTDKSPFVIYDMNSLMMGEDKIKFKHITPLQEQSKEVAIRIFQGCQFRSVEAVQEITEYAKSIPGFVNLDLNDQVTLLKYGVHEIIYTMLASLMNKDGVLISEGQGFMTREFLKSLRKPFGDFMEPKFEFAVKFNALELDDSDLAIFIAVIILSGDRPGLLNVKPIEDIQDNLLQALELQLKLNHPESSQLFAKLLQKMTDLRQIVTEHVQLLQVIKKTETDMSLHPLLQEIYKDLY
Text: (§1) Compounds may be screened for functional potency in transient transfection assays in CV-1 cells for their ability to activate the PPAR subtypes (transactivation assay). A previously established chimeric receptor system was utilized to allow comparison of the relative transcriptional activity of the receptor subtypes on the same synthetic response element and to prevent endogenous receptor activation from complicating the interpretation of results. See, for example, Lehmann, J. M.; Moore, L. B.; Smith-Oliver, T. A: Wilkinson, W. O.; Willson, T. M.; Kliewer, S. A., An antidiabetic thiazolidinedione is a high affinity ligand for peroxisome proliferator-activated receptor […], J. Biol. Chem., 1995, 270, 12953-6. The ligand binding domains for murine and human PPAR-alpha, PPAR-gamma, and PPAR-delta are each fused to the yeast transcription factor GAL4 DNA binding domain. CV-1 cells were transiently transfected with expression vectors for the respective PPAR chimera along with a reporter construct containing four or five copies of the GAL4 DNA binding site driving expression of luciferase. After 8-16 h, the cells are replated into multi-well assay plates and the media is exchanged to phenol-red free DME medium supplemented with 5% delipidated coif serum. 4 hours after replating, cells were treated with either compounds or 1% DMSO for 20-24 hours. Luciferase activity was then assayed with Britelite (Perkin Elmer) following the manufacturer's protocol and measured with either the Perkin Elmer Viewlux or Molecular Devices Acquost (see, for example. Kliewer, S. A., et. al. Cell 1995, 83, 813-819). Rosiglitazone is used as a positive control in the PPARγ assay. Wy-14643 and GW7647 is used as a positive control in the […]. GW50156 is used as the positive control in the PPARδ assay.
(§2) EC50 values are set forth below in Table 1.

PPAR-delta = target: T2, PPAR-delta (UniProt Q03181); test: Transient transfection transactivation assay in CV-1 cells, GAL4-PPAR-delta chimera, luciferase reporter
T2 sequence (Q03181 1-441): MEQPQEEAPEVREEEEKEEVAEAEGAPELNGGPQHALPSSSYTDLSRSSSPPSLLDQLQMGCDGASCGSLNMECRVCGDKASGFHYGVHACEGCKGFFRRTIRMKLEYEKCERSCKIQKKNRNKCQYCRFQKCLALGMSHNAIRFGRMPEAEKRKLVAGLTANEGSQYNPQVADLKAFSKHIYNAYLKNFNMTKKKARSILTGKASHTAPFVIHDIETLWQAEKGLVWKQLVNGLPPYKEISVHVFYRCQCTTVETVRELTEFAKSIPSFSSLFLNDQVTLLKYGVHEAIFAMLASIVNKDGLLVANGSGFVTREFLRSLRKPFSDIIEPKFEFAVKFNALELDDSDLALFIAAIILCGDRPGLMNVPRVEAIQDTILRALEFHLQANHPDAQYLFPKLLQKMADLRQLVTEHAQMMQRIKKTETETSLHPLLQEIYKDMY
Text: as §1, §2

PPAR-alpha = target: T3, PPAR-alpha (UniProt Q07869); test: Transient transfection transactivation assay in CV-1 cells, GAL4-PPAR-alpha chimera, luciferase reporter
T3 sequence (Q07869 1-468): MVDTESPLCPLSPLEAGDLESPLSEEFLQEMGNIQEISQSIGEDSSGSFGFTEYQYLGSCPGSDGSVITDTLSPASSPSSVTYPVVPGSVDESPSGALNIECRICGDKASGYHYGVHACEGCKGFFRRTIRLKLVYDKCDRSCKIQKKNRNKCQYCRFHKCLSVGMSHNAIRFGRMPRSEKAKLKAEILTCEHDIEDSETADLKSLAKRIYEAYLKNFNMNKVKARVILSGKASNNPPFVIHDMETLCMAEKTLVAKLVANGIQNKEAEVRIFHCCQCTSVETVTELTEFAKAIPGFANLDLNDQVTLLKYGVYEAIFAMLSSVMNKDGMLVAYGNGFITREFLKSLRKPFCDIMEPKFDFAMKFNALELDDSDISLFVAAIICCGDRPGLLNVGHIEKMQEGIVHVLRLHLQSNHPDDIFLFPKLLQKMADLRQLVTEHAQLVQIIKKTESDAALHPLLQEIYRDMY
Text: as §1
Examples 1-20 were assayed to measure their biological activity with respect to their efficacy for modulating PPAR-alpha, PPAR-gamma, and PPAR-delta. EC50 values are set forth below in Table 1.

EC50 (PPAR-gamma) [µM]	EC50 (PPAR-delta) [µM]	EC50 (PPAR-alpha) [µM]	SMILES
< 5	< 5	< 5	CCc1cnc(N(CCNS(=O)(=O)c2cccc3c2CC(C(=O)O)C3)Cc2ccc(OC(F)(F)F)cc2)nc1 (stereo not drawn) [Example 1, 4-{2-[(5-Ethyl-pyrimidin-2-yl)-(4-trifluoromethoxy-benzyl}-amino]-ethylsulfamoyl)-indan-2-carboxylic acid]
< 5	< 5	< 5	CCc1cnc(N(CCNS(=O)(=O)c2cc(C)cc(CC(=O)O)c2)Cc2ccc(OC(F)(F)F)cc2)nc1 [Example 2, (3-{2-[(Ethyl-pyrimidin-2-yl)-(4-trifluoromethoxy-benzyl)-amino]-ethylsulfamoyl)-5-methyl-phenyl)-acetic acid]
< 5	< 5	< 5	CCCCCN(CCNS(=O)(=O)c1cccc2c1CC(C(=O)O)C2)Cc1ccc(OC(F)(F)F)cc1 (stereo not drawn) [Example 3, 4-{2-[Pentyl-(4-trifluoromethoxy-benzyl)-amino]-ethylsulfamoyl}-indan-2-carboxylic acid]
< 5	< 5	< 5	CCCCCN(CCNS(=O)(=O)c1cc(C)cc(CC(=O)O)c1)Cc1ccc(OC(F)(F)F)cc1 [Example 4]
< 5	< 5	5 to 100	CCN(CCNS(=O)(=O)c1cc(C)cc(CC(=O)O)c1)Cc1ccc(OC(F)(F)F)cc1 [Example 5, (3-{2-[Ethyl-(4-trifluoromethoxy-benzyl}-amino]-ethylsulfamoyl)-5-methyl-phenyl)-acetic acid]
< 5	< 5	< 5	CCCCN(CCNS(=O)(=O)c1cc(C)cc(CC(=O)O)c1)Cc1ccc(OC(F)(F)F)cc1 [Example 6, (3-{2-[Butyl-(4-trifluoromethoxy-benzyl)-amino]-ethylsulfamoyl}-5-methyl-phenyl)-acetic acid]
< 5	< 5	< 5	CCCCN(CCNS(=O)(=O)c1cccc2c1CC(C(=O)O)C2)Cc1ccc(OC(F)(F)F)cc1 (stereo not drawn) [Example 7, 4-{2-[Butyl-(4-trifluoromethoxy-benzyl)-amino]-ethylsulfamoyl}-indan-2-carboxylic acid]
< 5	< 5	< 5	CCN(CCNS(=O)(=O)c1cccc2c1CC(C(=O)O)C2)Cc1ccc(OC(F)(F)F)cc1 (stereo not drawn) [Example 8]
< 5	< 5	> 100	CCCc1c(OCCN(C)S(=O)(=O)c2cccc3c2CC(C(=O)O)C3)ccc(C(C)=O)c1O (stereo not drawn) [Example 9, 4-(N-(2-(4-Acetyl-3-hydroxy-2-propylphenoxy)ethyl)-N-methylsulfamoyl)-2,3-dihydro-1H-indene-2-carboxylic acid]
< 5	< 5	< 5	CCCc1c(OCCN(C)S(=O)(=O)c2ccc3c(c2)C(C(=O)O)CC3)ccc(C(C)=O)c1O (stereo not drawn) [Example 10, 6-(N-(2-(4-Acetyl-3-hydroxy-2-propylphenoxy)ethyl)-N-methylsulfamoyl)-2-dihydro-1H-indene-1-carboxylic acid]
< 5	< 5	> 100	CCCc1c(OCCNS(=O)(=O)c2cccc3c2CC(C(=O)O)C3)ccc(C(C)=O)c1O (stereo not drawn) [Example 11, 4-(N-(2-(4-Acetyl-3-hydroxy-2-propylphenoxy)ethyl)sulfamoyl)-2,3-dihydro-1H-indene-2-carboxylic acid]
5 to 100	5 to 100	5 to 100	CCCc1c(OCCNS(=O)(=O)c2ccc3c(c2)CC(C(=O)O)C3)ccc(C(C)=O)c1O (stereo not drawn) [Example 12, 5-(N-(2-(4-Acetyl-3-hydroxy-2-propylphenoxy)ethyl)sulfamoyl)-2,3-dihydro-1H-indene-2-carboxylic acid]
5 to 100	> 100	> 100	CCCc1c(OCCN(C)S(=O)(=O)c2ccc3c(c2)CC(C(=O)O)C3)ccc(C(C)=O)c1O (stereo not drawn) [Example 13]
< 5	< 5	< 5	CCCc1c(OCCN(C)S(=O)(=O)c2cccc3c2CC(C(=O)O)C3)ccc2c(C(F)(F)F)noc12 (stereo not drawn) [Example 14, 4-(N-methyl-N-(2-(7-propyl-3-(trifluoromethyl)benzo[d]isoxazol-6-yloxy)ethyl)sulfamoyl)-2,3-dihydro-1H-indene-2-carboxylic acid]
> 100	< 5	> 100	Cc1ccc(C(=NOCCN(C)S(=O)(=O)c2cccc3c2CC(C(=O)O)C3)c2ccc(C)cc2)cc1 (stereo not drawn) [Example 15, 4-(N-(2-(di-p-tolylmethyleneaminooxy)ethyl)-N-methylsulfamoyl)-2,3-dihydro-1H-indene-2-carboxylic acid]
< 5	< 5	< 5	Cc1ccc(S(=O)(=O)N(C)CCON=C(c2ccc(C(F)(F)F)cc2)c2ccc(C(F)(F)F)cc2)cc1CC(=O)O [Example 16]
< 5	< 5	> 100	CN(CCON=C(c1ccc(C(F)(F)F)cc1)c1ccc(C(F)(F)F)cc1)S(=O)(=O)c1cccc2c1CC(C(=O)O)C2 (stereo not drawn) [Example 18, 4-(N-(2-(bis(4-(trifluoromethyl)phenyl)methyleneaminooxy)ethyl)-N-methylsulfamoyl)-2,3-dihydro-1H-indene-2-carboxylic acid]
< 5	< 5	> 100	CN(CCON=C(c1ccc(OC(F)(F)F)cc1)c1ccc(OC(F)(F)F)cc1)S(=O)(=O)c1cccc2c1CC(C(=O)O)C2 (stereo not drawn) [Example 19, 4-(N-(2-(bis(4-(trifluoromethoxy)phenyl)methyleneaminooxy)ethyl)-N-methylsulfamoyl)-2,3-dihydro-1H-indene-2-carboxylic acid]
< 5	< 5	< 5	Cc1ccc(C(=NOCCN(C)S(=O)(=O)c2ccc(C)c(CC(=O)O)c2)c2ccc(C)cc2)cc1 [Example 20]

From patent US20080287477A1, “Novel Compounds as Modulators of Ppar” (KALYPSYS, INC., priority 2006, published 2008)
